How the values were obtained:
[1] = target: T1, Intercellular adhesion molecule (ICAM-1), Integrin alpha-L/beta-2 (Homo sapiens, UniProt P05107+P20701); test: Ability to block the interaction between integrin LFA-1 and its adhesion partner ICAM-1 in a time-resolved fluorescent LFA-1/ICAM-1 biochemical interaction assay; assay type: protein-complex assay
[2] = target: T1, Intercellular adhesion molecule (ICAM-1), Integrin alpha-L/beta-2; test: Inhibition against binding of LFA-1 to ICAM-1; assay type: protein-complex assay

T1 sequence (P20701 whole entry): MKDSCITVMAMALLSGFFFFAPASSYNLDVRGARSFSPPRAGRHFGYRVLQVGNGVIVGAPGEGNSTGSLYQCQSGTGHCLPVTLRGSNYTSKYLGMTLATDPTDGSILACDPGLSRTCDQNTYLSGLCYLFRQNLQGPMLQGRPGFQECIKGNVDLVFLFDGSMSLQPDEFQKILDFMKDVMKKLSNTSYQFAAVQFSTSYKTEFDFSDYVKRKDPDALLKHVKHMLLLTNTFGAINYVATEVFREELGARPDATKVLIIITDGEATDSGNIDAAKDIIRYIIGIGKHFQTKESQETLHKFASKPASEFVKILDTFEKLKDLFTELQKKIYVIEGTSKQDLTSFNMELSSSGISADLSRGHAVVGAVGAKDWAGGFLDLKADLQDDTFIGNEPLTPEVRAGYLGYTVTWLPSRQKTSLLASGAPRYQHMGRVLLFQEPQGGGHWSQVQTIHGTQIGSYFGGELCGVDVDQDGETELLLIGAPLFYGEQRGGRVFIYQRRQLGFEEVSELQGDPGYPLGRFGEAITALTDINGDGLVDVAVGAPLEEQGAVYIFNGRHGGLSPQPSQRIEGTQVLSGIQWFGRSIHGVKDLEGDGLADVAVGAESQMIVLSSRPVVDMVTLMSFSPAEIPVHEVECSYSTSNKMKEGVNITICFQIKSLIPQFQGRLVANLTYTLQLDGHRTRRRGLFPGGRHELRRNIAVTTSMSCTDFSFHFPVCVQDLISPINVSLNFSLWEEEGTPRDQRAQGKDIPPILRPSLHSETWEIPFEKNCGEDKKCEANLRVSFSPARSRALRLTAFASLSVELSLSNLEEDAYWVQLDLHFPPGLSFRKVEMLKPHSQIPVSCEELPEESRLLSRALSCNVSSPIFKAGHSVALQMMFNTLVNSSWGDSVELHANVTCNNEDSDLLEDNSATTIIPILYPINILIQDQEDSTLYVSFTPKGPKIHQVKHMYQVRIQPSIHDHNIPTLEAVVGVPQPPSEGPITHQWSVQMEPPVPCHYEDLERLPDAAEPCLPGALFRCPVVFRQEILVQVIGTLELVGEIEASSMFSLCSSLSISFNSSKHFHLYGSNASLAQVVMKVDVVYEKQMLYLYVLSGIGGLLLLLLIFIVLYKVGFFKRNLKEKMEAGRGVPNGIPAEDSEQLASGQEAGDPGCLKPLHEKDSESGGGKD
T1 sequence (P05362 whole entry, further chain): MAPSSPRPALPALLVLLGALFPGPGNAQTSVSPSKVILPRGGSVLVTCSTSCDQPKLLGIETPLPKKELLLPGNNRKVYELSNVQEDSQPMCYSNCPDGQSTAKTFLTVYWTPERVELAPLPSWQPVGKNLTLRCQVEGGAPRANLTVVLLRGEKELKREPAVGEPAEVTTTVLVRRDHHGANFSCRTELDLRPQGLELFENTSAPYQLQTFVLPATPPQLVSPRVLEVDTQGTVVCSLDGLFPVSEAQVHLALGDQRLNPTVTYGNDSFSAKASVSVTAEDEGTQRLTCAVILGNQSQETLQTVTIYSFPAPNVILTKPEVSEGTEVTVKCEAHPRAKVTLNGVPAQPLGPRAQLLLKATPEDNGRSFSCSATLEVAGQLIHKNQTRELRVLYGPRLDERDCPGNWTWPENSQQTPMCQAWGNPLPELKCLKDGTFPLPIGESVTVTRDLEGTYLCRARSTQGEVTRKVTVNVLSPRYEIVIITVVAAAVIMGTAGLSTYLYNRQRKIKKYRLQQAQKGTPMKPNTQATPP
T1 sequence (P05107 whole entry): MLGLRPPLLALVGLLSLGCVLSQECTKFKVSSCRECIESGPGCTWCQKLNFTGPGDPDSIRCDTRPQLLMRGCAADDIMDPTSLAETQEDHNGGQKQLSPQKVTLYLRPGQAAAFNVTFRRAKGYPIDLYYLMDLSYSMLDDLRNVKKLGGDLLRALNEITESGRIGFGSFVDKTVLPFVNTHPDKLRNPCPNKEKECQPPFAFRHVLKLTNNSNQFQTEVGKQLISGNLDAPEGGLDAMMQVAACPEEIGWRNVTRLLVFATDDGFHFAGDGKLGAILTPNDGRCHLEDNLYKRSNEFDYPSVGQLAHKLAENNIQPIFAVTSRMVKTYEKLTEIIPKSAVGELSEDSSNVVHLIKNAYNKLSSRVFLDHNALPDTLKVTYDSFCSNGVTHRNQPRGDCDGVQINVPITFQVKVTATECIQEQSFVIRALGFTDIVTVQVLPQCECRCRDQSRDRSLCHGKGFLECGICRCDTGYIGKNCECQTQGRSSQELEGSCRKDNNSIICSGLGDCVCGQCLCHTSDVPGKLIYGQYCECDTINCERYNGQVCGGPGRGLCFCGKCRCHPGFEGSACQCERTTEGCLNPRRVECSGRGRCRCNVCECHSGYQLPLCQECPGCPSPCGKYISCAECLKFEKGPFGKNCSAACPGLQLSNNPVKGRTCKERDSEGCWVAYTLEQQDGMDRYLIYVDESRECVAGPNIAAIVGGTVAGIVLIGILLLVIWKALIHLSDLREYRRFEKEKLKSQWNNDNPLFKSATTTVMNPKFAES

Compound | IC50 [1] [nM] | IC50 [2] [µM]
Cc1cccc2sc(NC(=O)/C=C/c3ccccc3Sc3ccc(Cl)cc3Cl)nc12 | > 100000 | 
O=C(CCN1CCCC1)Nc1ccccc1Sc1ccc(Cl)cc1Cl | > 10000 | 
CC(=O)N1CCN(C(=O)/C=C/c2ccc(Sc3ccccc3C)c([N+](=O)[O-])c2)CC1 | 120 | 
O=C(/C=C/c1ccccc1Sc1ccc(Cl)cc1Cl)NCCCCCCO | 100000 | 
O=C(/C=C/c1ccccc1Sc1ccc(Cl)cc1Cl)N(Cc1ccccc1)Cc1ccc(Oc2ccccc2)cc1 | > 100000 | 
CC(=O)N1CCN(C(=O)/C=C/c2ccc(Sc3ccc(Cl)cc3Cl)c([N+](=O)[O-])c2)CC1 | 90 | 
O=C(/C=C/c1cccc(Sc2ccc(Cl)cc2Cl)c1)N(CCO)CCO | 15000 | 
O=C(/C=C/c1ccccc1Sc1ccc(Cl)cc1Cl)N(CCO)CCO | 2300 | 
CC(=O)N1CCN(C(=O)/C=C/c2ccc(Sc3ccccc3N(C)C)c([N+](=O)[O-])c2)CC1 | 310 | 
CC(=O)N1CCN(C(=O)/C=C/c2ccc(Sc3ccccc3C(C)(C)C)c([N+](=O)[O-])c2)CC1 | 530 | 
CC(=O)N1CCN(C(=O)/C=C/c2ccc(Sc3ccc(Cl)cc3Cl)c(Cl)c2)CC1 | 140 | 
O=C(/C=C/c1ccc(Sc2ccc(Cl)cc2Cl)c(Br)c1)NCCCN1CCCC1=O | 650 | 
O=C(/C=C/c1cccc(Sc2ccc(Cl)cc2Cl)c1)NCCCCCCO | 9800 | 
O=C(/C=C/c1ccccc1Sc1ccc(Cl)cc1Cl)NCCO | 3300 | 
CN1CCN(CCC(=O)Nc2ccccc2Sc2ccc(Cl)cc2Cl)CC1 | 33000 | 
O=C(O)/C=C/c1ccccc1Sc1ccc(Cl)cc1Cl | 2600 | 
CC(=O)N1CCN(C(=O)/C=C/c2ccc(Sc3ccccc3C=O)c([N+](=O)[O-])c2)CC1 | 60 | 
NC(=O)c1cc(/C=C/C(=O)N2CCOCC2)ccc1Sc1ccc(Cl)cc1Cl | > 20000 | 
O=C(/C=C/c1cccc(Sc2ccc(Cl)cc2Cl)c1)NCCCN1CCCC1=O | 4500 | 
O=C(/C=C/c1ccc(Sc2ccccc2NCCCN2CCOCC2)c(Cl)c1)N1CCOCC1 | 180 | 
O=C(/C=C/c1ccc(Sc2ccc(Cl)cc2Cl)c([N+](=O)[O-])c1)NCCCN1CCCC1=O | 170 | 
CC(=O)N1CCN(C(=O)/C=C/c2ccc(Sc3ccc(Cl)cc3Cl)c(/C=C/C(=O)N3CCOCC3)c2)CC1 | 18000 | 

Compound | IC50 [1] [nM] | IC50 [2] [µM]
O=C(O)c1cc(/C=C/C(=O)N2CCOCC2)ccc1Sc1ccc(Cl)cc1Cl | > 20000 | 
O=C(/C=C/c1ccc(Sc2ccc(Cl)cc2Cl)c(Cl)c1)NCCO | 920 | 
Nc1ccc(Sc2ccc(Cl)cc2Cl)c(Cl)c1 |  | 1.7
CN(CCC(=O)Nc1ccccc1Sc1ccc(Cl)cc1Cl)Cc1ccccc1 | > 100000 | 
O=C(/C=C/c1cccc(Sc2ccc(Cl)cc2Cl)c1)N1CCOCC1 | 16500 | 
O=C(/C=C/c1cccc(Sc2ccc(Cl)cc2Cl)c1)NCCCn1ccnc1 | 7000 | 
CCOC(=O)CN(C)Cc1ccccc1Sc1ccc(/C=C/C(=O)N2CCOCC2)cc1Cl | 260 | 
O=C(/C=C/c1ccc(Sc2ccc(Cl)cc2Cl)c(Cl)c1)NCCCN1CCCC1=O | 550 | 
O=C(/C=C/c1ccccc1Sc1ccc(Cl)cc1Cl)NCCc1ccccc1 | > 100000 | 
CN(C)CCC(=O)Nc1ccccc1Sc1ccc(Cl)cc1Cl | 82000 | 
O=C(/C=C/c1ccc(Sc2ccccc2CN2CCN(Cc3ccc4c(c3)OCO4)CC2)c(Cl)c1)N1CCOCC1 | 100 | 
O=C(/C=C/c1ccccc1Sc1ccc(Cl)cc1Cl)NCCCn1ccnc1 | 960 | 
CCCN(CCC)CCC(=O)Nc1ccccc1Sc1ccc(Cl)cc1Cl | 61000 | 
Clc1ccc(Sc2ccccc2NCCCN2CCOCC2)c(Cl)c1 | 140 | 
CN(C)CCNCc1ccccc1Sc1ccc(Cl)cc1Cl | 5600 | 
O=C(/C=C/c1ccc(Sc2ccc(Cl)cc2Cl)c(Cl)c1)NCCCn1ccnc1 | 1400 | 
O=C(O)CNC(=O)/C=C/c1ccccc1Sc1ccc(Cl)cc1Cl | 3900 | 
CC(=O)N1CCN(C(=O)/C=C/c2ccc(Sc3ccccc3Cl)c([N+](=O)[O-])c2)CC1 | 110 | 
O=C(/C=C/c1ccc(Sc2ccc(Cl)cc2Cl)c(Cl)c1)N1CCOCC1 | 460 | 
Nc1cc(/C=C/C(=O)NCCCN2CCCC2=O)ccc1Sc1ccc(Cl)cc1Cl | 19000 | 
O=C(O)/C=C/c1ccc(Sc2ccc(Cl)cc2Cl)c(Cl)c1 | 2600 | 
CC(=O)N1CCN(C(=O)/C=C/c2ccc(Sc3ccccc3C(N)=O)c([N+](=O)[O-])c2)CC1 | 16200 | 

Compound | IC50 [1] [nM] | IC50 [2] [µM]
CN1CCN(C(=O)/C=C/c2ccc(Sc3ccc(Cl)cc3Cl)c(Cl)c2)CC1 | 1100 | 
O=C(/C=C/c1ccc(Sc2ccc(Cl)cc2Cl)c(Cl)c1)NCCCCCCO | 590 | 
CN(C)CCN1c2ccccc2Sc2ccc(Cl)cc21 [CHOLRPHENETHAZINE] |  | 28
O=C(/C=C/c1ccc(Sc2ccccc2CN2CCOCC2)c(Cl)c1)N1CCOCC1 | 150 | 
O=C(/C=C/c1ccccc1Sc1ccc(Cl)cc1Cl)NCCCN1CCCC1=O | 1600 | 
CC(=O)N1CCN(C(=O)/C=C/c2ccc(Sc3ccccc3N)c([N+](=O)[O-])c2)CC1 | 620 | 
O=Cc1cc(/C=C/C(=O)N2CCOCC2)ccc1Sc1ccc(Cl)cc1Cl | 610 | 
O=C(/C=C/c1ccccc1Sc1ccc(Cl)cc1Cl)NCC(O)CO (centres undefined) | 3800 | 
O=C(/C=C/c1ccccc1Sc1ccc(Cl)cc1Cl)NCC1CCCO1 (centres undefined) | 2100 | 
O=C(/C=C/c1ccccc1Sc1ccc(Cl)cc1Cl)N1CCOCC1 | 1200 | 
O=C(/C=C/c1ccc(Sc2ccc(Cl)cc2Cl)c(Cl)c1)N1CCN(c2ccccn2)CC1 | 750 | 
CCc1ccccc1Sc1ccc(/C=C/C(=O)N2CCN(C(C)=O)CC2)cc1[N+](=O)[O-] | 65 | 
CC(=O)N1CCN(C(=O)/C=C/c2ccc(Sc3cccc(Cl)c3Cl)c([N+](=O)[O-])c2)CC1 | 100 | 
O=C(/C=C/c1ccc(Sc2ccc(Cl)cc2Cl)c(NCCCN2CCOCC2)c1)NCCCN1CCCC1=O | 15500 | 
O=C(/C=C/c1ccc(Sc2ccc(Cl)cc2Cl)c(/C=C/C(=O)N2CCOCC2)c1)N1CCOCC1 | > 20000 | 
O=C(/C=C/c1ccc(Sc2ccc(Cl)cc2Cl)c(/C=C/C(=O)N2CCOCC2)c1)NCCCN1CCCC1=O | > 20000 | 
O=C(/C=C/c1ccc(Sc2ccc(Cl)cc2Cl)c(Cl)c1)N(CCO)CCO | 710 | 
O=C(/C=C/c1ccc(Sc2ccccc2/C=C/C(=O)N2CCOCC2)c(Cl)c1)N1CCOCC1 | 180 | 
O=C(CCN1CCOCC1)Nc1ccccc1Sc1ccc(Cl)cc1Cl | 12000 | 
O=CN1CCN(Cc2ccccc2Sc2ccc(/C=C/C(=O)N3CCOCC3)cc2Cl)CC1 | 420 | 
